Data as given in article PMC10382042, “Brevetoxin versus Brevenal Modulation of Human Nav1 Channels” (Marine Drugs, 2023).
Values joined by “and” are separate entries in the source; they are usually repeats but may differ in a detail not shown here. Equal values may be shown once. Read-outs that look alike come from different tables or passages of the source.

Experiments:
human Nav1.4 = human Nav1.4 (Homo sapiens, UniProt P35499); test: Automated patch-clamp, concentration-response and inactivation fits, Nav1.4 in CHO-K1; type: cell-based; settings: for Nav1.4 yinf / Nav1.4 τ inact: n = 4
Method: (§1) Functional modulation of recombinant human voltage-gated sodium (Nav) channels exposed to marine PbTx-3 and brevenal was assessed by automated patch-clamp electrophysiology. Neuronal Nav1.2 (CNS) and Nav1.7 (PNS), in addition to muscle Nav1.4 (skeletal) and Nav1.5 (cardiac) sodium channels, were patch-clamped in mammalian cells. Whole-cell currents mediated by human Nav1.4 and Nav1.7 overexpressed in CHO-K1 cells, as well as human Nav1.2 and Nav1.5 overexpressed in HEK293 cells, were recorded at room temperature. Currents were elicited by 25 ms test pulses to −20 mV from a holding potential (Vh) of −120 mV, delivered for 5 min at 0.1 Hz, after each full-bath solution exchange to allow current amplitude and kinetics to reach a steady state.
(§2) Current traces were scaled to maximal Ipeak and are presented as insets in Figure 2 to underline the effects (or lack thereof) of PbTx-3 and brevenal on the current kinetics of the four Nav isoforms studied. Inactivation time constants (τinact) in control and the presence of PbTx-3 and brevenal were estimated by exponential fits (see Methods) to the current decay between 15% and 85% of the depolarizing pulse. Single exponential fits adequately described τinact for the neuronal and the skeletal muscle Nav isoforms, whereas a double exponential fit was required to approximate open channel inactivation of the cardiac Nav current. Consistent with the enhancement of Ilate observed for Nav1.2, Nav1.4, and Nav1.5 in the presence of PbTx-3, significant concentration-dependent increases in the Yinf asymptote were detected (Tables S1–S3). These were mirrored by brevenal exposure in Nav1.2- and Nav1.4-mediated currents. Nevertheless, the estimated τinacts appeared insensitive to PbTx-3 and brevenal modification, with the notable exception of Nav1.4, for which high concentrations of PbTx-3 and brevenal caused a measurable slowing of the open channel inactivation time constant (Table S2).
(§3) Recording solutions: The extracellular solution contained (in mM) 140 NaCl, 5 KCl, 2 CaCl2, 2 MgCl2, 10 glucose, and 10 HEPES (pH 7.4 with NaOH, 298 ± 3 mOsmol/k g). Control intracellular solution (in mM): 60 CsF, 70 CsCl, 10 EGTA, 10 glucose, and 10 HEPES (pH 7.2 with CsOH, 285 ± 3 mOsmol/kg). Intracellular exposure to brevenal (1 μM) was achieved by including it in the control intracellular solution during chip filling.
(§4) HEK293 cells heterologously expressing human Nav1.2 (Scottish Biomedical, a kind gift from the Petrous lab, Florey Institute of Neuroscience and Mental Health, Melbourne, VIC Australia) and Nav1.5 (ChanTest Corp., Cleveland, OH, USA) were cultured in DMEM containing 10% v/v FBS and selection antibiotics to enable stable expression as per the manufacturer’s recommendation. CHOK1 expressing Nav1.4 and Nav1.7 (ChanTest) was cultured in DMEM/F12 containing 10% v/v FBS and selection antibiotics supporting stable expression as recommended by the manufacturer. Cells were maintained in a humidified 5% CO2 incubator at 37 °C, grown in T25 flasks to 70–80% confluence, and passaged every 3–4 days using TrypLE Express (Invitrogen). After harvesting with TrypLE, cells were resuspended to 10^5 cells/mL in cold extracellular solution and allowed to recover for 30 min at 4 °C before recording.
(§5) Electrophysiology: Automated patch-clamp (APC) recordings were performed in a PatchLiner Octo (Nanion Technologies GmbH, Munich, Germany) equipped with two EPC-10 quadro patch-clamp amplifiers (HEKA Electronik, Lambrecht/Pfalz, Germany). PatchControl HT (Nanion) was used for cell capture, seal formation, and establishment of the whole-cell configuration, whilst voltage was controlled and currents were sampled with PatchMaster (HEKA Electronics). Recordings were performed under the whole-cell configuration using single-hole planar medium resistance NPC-16 chips (Rchip, resistance of ~2.5 MΩ) at room temperature (22–24 °C).
(§6) Cells between passages 6 and 12 were used. […]

human Nav1.2 [1] = target: T1, human Nav1.2 (Homo sapiens, UniProt Q99250); test: Automated patch-clamp I-V relationship (voltage dependence of activation, Gmax), Nav1.2; type: cell-based
Method: (§7) The voltage dependence of recombinant Nav channel-mediated currents exposed to PbTx-3 and brevenal was evaluated using current–voltage (I-V) relationships built for Ipeak and Ilate elicited by a standard stimulation protocol (25 ms, −100 to +60 mV, Vh −120 mV, 0.1 Hz).
(§8) The effects of extracellular exposure to PbTx-3 (PbTx-3o = 1 μM) and brevenal (Brevenalo = 10 μM) on the activation of Nav channels in neuronal and muscle cells were examined under normal intracellular ionic conditions. […] To investigate the possibility of overlapping binding of these compounds within Nav channels, Nav whole-cell currents were recorded using an intracellular solution supplemented with brevenal (Brevenali = 1 μM). After equilibration, extracellular PbTx-3o (1 μM) was applied and its modulatory effects over the current kinetics and voltage dependence of activation were compared.
(§9) Figure 4 and Figure 5 display representative current traces mediated by human recombinant Nav channels in control and upon exposure to PbTx-3 and brevenal. I-V plots from the normalized peak and late (when present) currents amplitudes (Ipeak/Ipeak^max and Ilate/Ipeak^max) were fitted to a Boltzmann function rendering the half-maximal activation potential (V0.5) and normalized macroscopic conductance (Gmax) parameters (see Section 4). The changes in V0.5 (ΔV0.5 = V0.5^Comp − V0.5^Ctr) and relative Gmax (Gmax^Rel = Gmax^Comp/Gmax^Ctr) observed in the presence of PbTx-3 and brevenal and control conditions were then calculated and compared for all assayed conditions.
as §3, §5
(§10) Peak I–V curves were fitted using:I(V) = (V − Vrev) × Gmax/(1 + exp ((V0.5 − V)/Vslope) where I is the macroscopic current, V is the command potential, Vrev is the reversal potential (mV), Gmax is the maximal conductance, V0.5 is the half-activation potential (mV), and Vslope is the slope factor (mV/e-fold).

human Nav1.2 [2] = target: T1, human Nav1.2; test: Automated patch-clamp, concentration-response and inactivation fits, Nav1.2 in HEK293; type: cell-based; settings: for Nav1.2 yinf: single exponential fit
Method: as §1, §2, §3, §4, §5, §6

human Nav1.7 = human Nav1.7 (Homo sapiens, UniProt Q15858); test: Automated patch-clamp I-V relationship (voltage dependence of activation, Gmax), Nav1.7; type: cell-based
Method: as §7, §8, §9, §3, §5, §10

[3] = test system: nodose ganglion neuron Navs; settings: cited from earlier work
[4] = test pulse −20 mV, Vh −120 mV, extracellular, n = 5
[5] = extracellular brevenal 10 μM, n = 5

T1 sequence (Q99250 whole entry): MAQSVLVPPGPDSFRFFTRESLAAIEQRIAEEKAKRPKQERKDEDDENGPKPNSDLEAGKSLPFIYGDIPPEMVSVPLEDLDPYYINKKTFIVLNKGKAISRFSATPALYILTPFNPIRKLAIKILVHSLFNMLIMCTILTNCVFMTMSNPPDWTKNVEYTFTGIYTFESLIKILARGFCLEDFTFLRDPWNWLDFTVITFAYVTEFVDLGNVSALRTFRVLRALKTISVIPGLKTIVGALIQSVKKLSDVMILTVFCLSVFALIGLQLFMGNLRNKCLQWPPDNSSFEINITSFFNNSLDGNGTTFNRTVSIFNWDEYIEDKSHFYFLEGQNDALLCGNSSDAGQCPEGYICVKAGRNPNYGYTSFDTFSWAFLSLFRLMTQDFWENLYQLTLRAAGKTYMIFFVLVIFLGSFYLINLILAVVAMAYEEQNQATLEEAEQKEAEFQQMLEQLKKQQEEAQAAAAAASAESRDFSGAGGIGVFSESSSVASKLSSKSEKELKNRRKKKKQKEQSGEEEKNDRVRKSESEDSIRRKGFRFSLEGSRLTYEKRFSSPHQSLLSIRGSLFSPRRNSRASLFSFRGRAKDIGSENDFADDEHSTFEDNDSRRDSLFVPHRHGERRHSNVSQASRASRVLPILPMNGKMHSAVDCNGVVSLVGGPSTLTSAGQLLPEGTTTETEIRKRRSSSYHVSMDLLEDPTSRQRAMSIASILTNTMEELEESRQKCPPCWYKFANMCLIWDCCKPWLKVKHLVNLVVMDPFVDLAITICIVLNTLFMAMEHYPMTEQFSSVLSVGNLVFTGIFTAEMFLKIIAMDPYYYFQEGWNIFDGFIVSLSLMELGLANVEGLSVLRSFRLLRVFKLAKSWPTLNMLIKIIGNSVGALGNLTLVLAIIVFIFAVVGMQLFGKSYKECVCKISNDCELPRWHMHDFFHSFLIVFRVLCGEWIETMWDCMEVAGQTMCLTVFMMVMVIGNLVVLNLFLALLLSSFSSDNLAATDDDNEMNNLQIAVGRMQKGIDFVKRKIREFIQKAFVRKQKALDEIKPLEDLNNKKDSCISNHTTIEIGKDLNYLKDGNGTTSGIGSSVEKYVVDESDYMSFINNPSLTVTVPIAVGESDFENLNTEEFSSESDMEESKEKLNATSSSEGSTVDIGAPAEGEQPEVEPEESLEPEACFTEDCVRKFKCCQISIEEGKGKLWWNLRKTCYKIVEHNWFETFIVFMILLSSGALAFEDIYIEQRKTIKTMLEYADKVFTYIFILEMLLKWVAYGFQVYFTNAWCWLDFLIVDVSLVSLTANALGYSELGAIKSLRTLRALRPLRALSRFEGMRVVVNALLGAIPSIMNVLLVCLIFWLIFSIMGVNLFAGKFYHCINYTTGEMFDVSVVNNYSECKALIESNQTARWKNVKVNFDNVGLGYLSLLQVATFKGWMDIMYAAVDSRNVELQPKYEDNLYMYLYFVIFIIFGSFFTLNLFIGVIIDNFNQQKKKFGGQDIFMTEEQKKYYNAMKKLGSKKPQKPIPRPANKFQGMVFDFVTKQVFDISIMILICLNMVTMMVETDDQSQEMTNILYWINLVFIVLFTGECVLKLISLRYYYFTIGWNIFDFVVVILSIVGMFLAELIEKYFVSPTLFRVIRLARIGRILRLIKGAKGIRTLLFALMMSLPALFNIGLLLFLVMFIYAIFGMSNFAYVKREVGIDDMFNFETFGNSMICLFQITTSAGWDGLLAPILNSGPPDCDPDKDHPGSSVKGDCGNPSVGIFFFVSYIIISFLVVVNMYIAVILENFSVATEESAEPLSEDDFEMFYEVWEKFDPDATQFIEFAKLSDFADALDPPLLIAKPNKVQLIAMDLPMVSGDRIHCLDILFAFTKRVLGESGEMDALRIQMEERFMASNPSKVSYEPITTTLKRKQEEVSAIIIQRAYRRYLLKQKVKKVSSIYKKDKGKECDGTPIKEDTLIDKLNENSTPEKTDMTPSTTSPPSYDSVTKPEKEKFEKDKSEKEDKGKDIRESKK
human Nav1.7, sequence (Q15858 whole entry): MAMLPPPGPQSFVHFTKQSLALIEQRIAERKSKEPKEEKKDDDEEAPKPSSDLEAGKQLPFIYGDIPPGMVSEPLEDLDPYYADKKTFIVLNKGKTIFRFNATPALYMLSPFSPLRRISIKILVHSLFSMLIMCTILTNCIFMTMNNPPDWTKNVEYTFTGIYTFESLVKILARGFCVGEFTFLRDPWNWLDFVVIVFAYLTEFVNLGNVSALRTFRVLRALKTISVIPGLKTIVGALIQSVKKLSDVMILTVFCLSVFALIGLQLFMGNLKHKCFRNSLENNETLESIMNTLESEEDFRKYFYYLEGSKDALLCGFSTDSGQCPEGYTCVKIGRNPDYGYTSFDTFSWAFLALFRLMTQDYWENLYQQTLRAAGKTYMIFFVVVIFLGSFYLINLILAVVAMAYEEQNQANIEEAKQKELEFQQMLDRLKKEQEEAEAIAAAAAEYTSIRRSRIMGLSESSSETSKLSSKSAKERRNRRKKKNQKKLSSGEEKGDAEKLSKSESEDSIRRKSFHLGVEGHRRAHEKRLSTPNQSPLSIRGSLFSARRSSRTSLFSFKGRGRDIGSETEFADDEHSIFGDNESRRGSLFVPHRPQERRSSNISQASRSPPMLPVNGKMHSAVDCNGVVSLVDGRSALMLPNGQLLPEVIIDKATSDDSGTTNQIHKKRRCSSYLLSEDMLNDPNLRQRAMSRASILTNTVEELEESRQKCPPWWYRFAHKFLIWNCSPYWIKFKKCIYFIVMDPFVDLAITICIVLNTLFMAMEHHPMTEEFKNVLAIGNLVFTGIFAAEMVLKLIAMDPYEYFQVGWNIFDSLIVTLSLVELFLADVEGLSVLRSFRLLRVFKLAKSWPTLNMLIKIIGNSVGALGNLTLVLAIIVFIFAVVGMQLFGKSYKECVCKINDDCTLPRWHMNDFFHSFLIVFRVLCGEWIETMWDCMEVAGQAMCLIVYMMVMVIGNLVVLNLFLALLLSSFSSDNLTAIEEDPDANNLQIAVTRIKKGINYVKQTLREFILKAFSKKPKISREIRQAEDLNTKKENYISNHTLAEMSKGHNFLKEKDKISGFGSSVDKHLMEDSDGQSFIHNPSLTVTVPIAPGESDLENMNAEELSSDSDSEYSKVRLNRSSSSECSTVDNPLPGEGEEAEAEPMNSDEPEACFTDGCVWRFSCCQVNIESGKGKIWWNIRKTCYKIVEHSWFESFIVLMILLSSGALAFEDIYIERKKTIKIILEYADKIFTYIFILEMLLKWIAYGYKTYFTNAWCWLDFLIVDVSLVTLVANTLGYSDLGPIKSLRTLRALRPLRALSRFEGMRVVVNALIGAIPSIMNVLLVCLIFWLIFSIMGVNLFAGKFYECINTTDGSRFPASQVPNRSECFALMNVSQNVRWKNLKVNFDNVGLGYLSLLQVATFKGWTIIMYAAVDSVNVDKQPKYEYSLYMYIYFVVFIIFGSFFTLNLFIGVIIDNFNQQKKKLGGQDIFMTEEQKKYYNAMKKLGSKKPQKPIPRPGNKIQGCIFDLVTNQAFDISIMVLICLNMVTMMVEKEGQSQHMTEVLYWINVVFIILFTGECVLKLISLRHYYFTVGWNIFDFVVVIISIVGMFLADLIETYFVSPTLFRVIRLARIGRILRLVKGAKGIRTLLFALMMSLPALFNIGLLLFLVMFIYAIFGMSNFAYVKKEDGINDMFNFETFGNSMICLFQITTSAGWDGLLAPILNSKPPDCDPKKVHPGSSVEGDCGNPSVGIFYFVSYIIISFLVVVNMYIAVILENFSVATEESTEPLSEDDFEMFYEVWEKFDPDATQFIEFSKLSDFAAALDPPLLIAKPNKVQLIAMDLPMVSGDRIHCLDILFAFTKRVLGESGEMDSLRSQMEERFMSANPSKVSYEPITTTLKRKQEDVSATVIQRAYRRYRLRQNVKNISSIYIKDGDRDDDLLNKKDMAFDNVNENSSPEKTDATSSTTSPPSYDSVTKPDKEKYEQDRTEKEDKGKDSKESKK

Compound: C=C/C=C\CC[C@H]1O[C@H]2CC[C@@]3(C)O[C@H]4[C@@H](O)C[C@@]5(C)O[C@@H](CC/C=C(C)/C(C)=C/C=O)[C@@H](C)C[C@H]5O[C@@H]4C[C@@H]3O[C@@H]2CC[C@@]1(C)O [Brevenal]
- Nav1.4 yinf (human Nav1.4; 10^-5 M): 0.19±0.03
- Nav1.4 τ inact (human Nav1.4; 10^-5 M): 1.16 ± 0.15 ms
- Nav1.4 yinf (human Nav1.4; 10^-6 M): 0.14±0.03
- Nav1.4 yinf (human Nav1.4; 10^-9 M): 0.09±0.01
- Nav1.4 τ inact (human Nav1.4; 10^-9 M): 0.71 ± 0.11 ms
- fold lower potency than PbTx-3 at enhancing Nav1.4-mediated Ilate (human Nav1.4; Brevenal EC50 vs PbTx-3 EC50): ~ 25 fold
- EC50 (human Nav1.4; enhancement of late current, −20 mV, Vh −120 mV, n = 5, read-out: Nav1.4 Ilate EC50): 100 nM
- EC50 (human Nav1.4; inhibition of peak current, −20 mV, Vh −120 mV, n = 5, read-out: Nav1.4 Ipeak EC50): 7.7 nM
- Nav1.4 Ilate FC^Max (maximal fold change) (human Nav1.4; [4]): 4.1 ± 0.8
- Nav1.4 Ipeak FC^Max (maximal fold change) (human Nav1.4; [4]): 0.1 ± 0.1
- Nav1.4 Ilate FC^Max (maximal fold change) (human Nav1.4; test pulse −20 mV, Vh −120 mV, extracellular, n = 5, listed as brevenal): 4.1
- Nav1.2 V0.5 (human Nav1.2 [1]; Ctro:Brevenali, intracellular brevenal 1 μM, n = 4, control −22.6 ± 1.9 mV): −43.9 ± 2.3 mV
- decrease in Nav1.2 Gmax (human Nav1.2 [1]; extracellular brevenal 10 μM): ~ 40%
- Gmax^Rel of Nav1.2 (human Nav1.2 [1]; [5]): 0.6 ± 0.1
- ΔV0.5 of Nav1.2 activation (depolarizing shift) (human Nav1.2 [1]; [5]): 6.1 ± 1.0 mV
- leftward shift in Nav1.2 V0.5 vs control intracellular (human Nav1.2 [1]; intracellular dialysis with brevenal 1 μM): ~ 20 mV
- Nav1.2 τ inact (human Nav1.2 [2]; 10^-5 M, n = 4): 0.75 ± 0.10 ms
- Nav1.2 yinf (human Nav1.2 [2]; 10^-5 M, n = 4): 0.12±0.06
- Nav1.2 τ inact (human Nav1.2 [2]; 10^-6 M, n = 4): 0.65 ± 0.08 ms
- Nav1.2 yinf (human Nav1.2 [2]; 10^-6 M, n = 4): 0.10±0.07
- Nav1.2 τ inact (human Nav1.2 [2]; 10^-9 M, n = 4): 0.74 ± 0.8 ms
- Nav1.2 yinf (human Nav1.2 [2]; 10^-9 M, n = 4): 0.08±0.04
- EC50 (human Nav1.2 [2]; inhibition of peak current, −20 mV, Vh −120 mV, n = 5, read-out: Nav1.2 Ipeak EC50): 18 nM
- Nav1.2 Ipeak FC^Max (maximal fold change) (human Nav1.2 [2]; [4]): 0.6 ± 0.1
- Nav1.7 V0.5 (human Nav1.7; Brevenali-occupied channels (intracellular 1 μM), n = 4, control −20.0 ± 2.4 mV): −16.6 ± 1.7 mV
- decrease in Nav1.7 Gmax (human Nav1.7; Brevenalo 10 μM): ~ 10%
- Gmax^Rel of Nav1.7 (human Nav1.7; Brevenalo 10 μM, n = 5): 0.9 ± 0.1
- shift in V0.5 of Nav1.7 (human Nav1.7; Brevenalo 10 μM, n = 6): −4.5 ± 0.4 mV

Compound: C=C(CO)C[C@@H]1C[C@H](O)[C@]2(C)OC3CC4OC5C[C@]6(C)O[C@]7(C)CCC8OC9C[C@]%10(C)OC%11C(C)=CC(=O)OC%11CC%10OC9C[C@@H](C)C8OC7CC6O[C@@]5(C)C/C=C\C4OC3CC2O1 (stereo partly shown) [PbTx-3, Brevetoxin PbTx-3]
- Nav1.4 Ipeak FC^Max (maximal fold change) (human Nav1.4): 0.03 ± 0.03
- EC50 (human Nav1.4; read-out: EC50, enhancement of Nav1.4-mediated Ilate): 4 nM
- EC50 (human Nav1.4; read-out: Nav1.4 Ilate EC50): 4.1 nM
- EC50 (human Nav1.4; read-out: Nav1.4 Ipeak EC50): 0.91 nM
- Gmax^Rel of Nav1.2 (human Nav1.2 [1]): 0.9 ± 0.1
- Nav1.2 Ilate as % of Ipeak (human Nav1.2 [1]): ~ 40%
- ΔV0.5 of Nav1.2 activation (human Nav1.2 [1]): 1.5 ± 1.0 mV
- Nav1.2 Ilate FC^Max (maximal fold change) (human Nav1.2 [2]): 3.0 ± 0.1
- Nav1.2 τ inact (human Nav1.2 [2]): 0.88 ± 0.1 ms and 0.76 ± 0.05 ms and 0.64 ± 0.14 ms
- EC50 (human Nav1.2 [2]; read-out: Nav1.2 Ilate EC50): 0.0053 nM
- decrease in Nav1.7 maximal conductance (human Nav1.7): ~ 70%
- leftward shift in activation ΔV0.5 of Nav1.7 (human Nav1.7): 6.8 ± 0.7 mV
- shift in the voltage dependence of activation of Nav1.7 (human Nav1.7): −10.0 ± 0.6 mV
- fold increase in the mean apparent single-channel open time [3]: ~ 2 fold
- lower conductance (sub-conductance) levels of PbTx-3-modified nodose Navs [3]: 10.7 pS and 21.2 pS
